From patent US5457103A, “3',5'-di-tert.-butyl-4'-hydroxy flavones” (Adir et Compagnie, priority 1992, dated 1995) come the findings set out here.

Test [1] concerns Human LDLs. Description: Modification of LDLs by copper sulphate (inhibition of LDL oxidation, MDA production). In kind it is biochemical. As to conditions: 24 hours, copper sulfate 5 μM, compounds 0.1 μM to 100 μM; read-out: IC50 (reduction by 50% of the production of MDA), oxidation of LDLs by copper sulfate. How it is done: (§1) This activity was compared with that of probucol and vitamin E taken as reference products.
Modification of LDLs by copper sulphate
Human LDLs are incubated for 24 hours in the presence of copper sulfate (5 μM) and in the absence or in the presence of the compounds tested (from 0.1 μM to 100 μM).
After incubation, the peroxidation of the LDLs is evaluated by electrophoresis on agar gel and by the formation of one of the products of lipid peroxidation: malonic dialdehyde (MDA) (cf. Parthasarathy S. et al., J. Clin. Invest., 77, (1986), 641-644).
The activity of the compounds tested is evaluated by calculating the concentrations that reduce by 50% (IC50) the production of MDA compared with the control experiments in the absence of a product of the invention.

Test [2] has as its system Human LDLs. Description: Modification of LDLs by endothelial cells of the rabbit aorta (inhibition of LDL oxidation, MDA production). The conditions noted are these: 24 hours, endothelial cells of rabbit aorta (RECL B4 line), compounds 0.1 to 100 μM; read-out: IC50 (reduction by 50% of the production of MDA), oxidation of LDLs by endothelial cells. In kind it is cell-based. On the procedure:
as §1
Modification of LDLs by endothelial cells
Human LDLs are incubated for 24 hours in the presence of endothelial cells of the rabbit aorta (RECL B4 line, provenance: Pr. Steinberg, USA) and in the absence or in the presence of the tested compounds (from 0.1 to 100 μM).
After incubation, the peroxidation of the LDLs is evaluated as in Example 21 by electrophoresis on agar gel and by the formation of MDA (cf. Steinbrecher, U.P. et al., Proc. Nat. Acad. Sci. USA, 81, (1984), 3883-3887). The activity of the compounds tested is evaluated by calculating the concentrations that reduce by 50% (IC50) the production of MDA compared with the control experiments in the absence of a product of the invention.
The results of this test of inhibition of oxidation of LDLs by endothelial cells are grouped below: […]

Test [3] deals with coronary arteries caused to contract by F2α prostaglandin (PGF2α). Description: Vasorelaxant activity on isolated coronary artery rings contracted by PGF2α. Also on record: species or system Yucatan miniature pigs. As to conditions: for activity at 0.1 µM / activity at 0.3 µM / activity at 1 µM / activity at 3 µM / activity at 10 µM: 0.25 h, PGF2α 4 μM, indomethacin 10 μM, cumulative concentrations every 15 minutes, read-out: tension as a percentage of the maximum tension observed under PGF2α. How it is done:
Study of the compounds of the invention on isolated vessels
Yucatan miniature pigs (Ch. River) are anaesthetised with pentobarbitone. The circumflex branch of the left coronary artery is removed and proximal rings of approximately 4 mm are prepared. The organs are placed in a temperature-controlled 20 ml bath containing a physiological solution having the composition:
maintained at 37° C., pH =7.4 and with 95% oxygen and 5% carbon dioxide. The initial tension is established progressively up to 6 g. After a stabilisation period of 60 minutes, the rings are caused to contract by PGF2a (4 μM) in the presence of indomethacin (10 μM). As soon as this concentration has stabilised, the products of the present invention are tested by adding cumulative concentrations of the product of Example 17 and probucol every 15 minutes in comparison with the control experiments with the solvent used (dimethyl sulfoxide:DMSO).

A word on the IC50: it is the concentration that gives 50% inhibition.

Take `CC(C)(C)c1cc(-c2cc(=O)c3ccc(O)cc3o2)cc(C(C)(C)C)c1O` [Example 1, 3',5'-di-tert-butyl-7,4'-dihydroxyflavone]: the IC50 with Human LDLs [1] was found to be 1000 nM.
Still for that read-out and setting: next, `CCCCCCOc1ccc2c(=O)cc(-c3cc(C(C)(C)C)c(O)c(C(C)(C)C)c3)oc2c1` [Example 2, 3',5'-di-tert.-butyl-7-n-hexyloxy-4'-hydroxyflavone]: 5000 nM.
The same measure, in the same setting: next, `CC(C)(C)c1cc(-c2cc(=O)c3ccc(OCCN4CCOCC4)cc3o2)cc(C(C)(C)C)c1O` [Example 3, 3', 5'-di-tert.-butyl-4'-hydroxy-.7-(4"-morpholinylethoxy)flavone]: 800 nM.
For `CC(C)(C)c1cc(-c2cc(=O)c3ccc(OCc4ccc(Cl)cc4)cc3o2)cc(C(C)(C)C)c1O` [Example 4, 7-p-chlorobenzyloxy-3',5'-di-tert.-butyl-4'-hydroxyflavone], the IC50 with Human LDLs [1] turned out to be 7000 nM.
`CC(C)(C)c1cc(-c2cc(=O)c3ccc(OCC(=O)N4CCCCC4)cc3o2)cc(C(C)(C)C)c1O` [Example 5, 3',5'-di-tert-butyl-4'-hydroxy-7-(2"-piperidino-2"-oxoethoxy)flavone]: the half-maximal inhibitory concentration (IC50) in the test on Human LDLs [1] is 3000 nM.
For `CC(C)(C)c1cc(-c2cc(=O)c3ccc(OCC(=O)N4CCN(Cc5ccccc5)CC4)cc3o2)cc(C(C)(C)C)c1O` [Example 6, 3',5'-di-tert.-butyl-4'-hydroxy-7-[2"-(N-benzylpiperazino)-2"-oxo-ethoxy]flavone], in the test on Human LDLs [1], the IC50 stood at 3000 nM.
Regarding `CCN(CC)C(=O)COc1ccc2c(=O)cc(-c3cc(C(C)(C)C)c(O)c(C(C)(C)C)c3)oc2c1` [Example 7, 3',5'-di-tert-butyl-4'-hydroxy-7-(N,N-diethylacetamidoxy) flavone], in the test on Human LDLs [1], the concentration for half-maximal inhibition (IC50) turned out to be 3000 nM.
On to `CC(C)(C)c1cc(-c2cc(=O)c3ccccc3o2)cc(C(C)(C)C)c1O` [Example 14, 3',5'-di-tert-butyl-4'-hydroxyflavone], for which the IC50 in the test on Human LDLs [2] was found to be 2500 nM; in the test on Human LDLs [1], 3000 nM.
`CCOC(=O)C(C)(C)Oc1ccc2c(=O)cc(-c3cc(C(C)(C)C)c(O)c(C(C)(C)C)c3)oc2c1` [Example 15, Ethyl 2-17-(3',5'-di-tert.-butyl-4'-hydroxy)flavonyl]oxy-2,2-dimethyl acetate]: the concentration for half-maximal inhibition (IC50) came to 500 nM with Human LDLs [2] and 3000 nM in the test on Human LDLs [1].
With `CCOC(=O)COc1ccc2c(=O)cc(-c3cc(C(C)(C)C)c(O)c(C(C)(C)C)c3)oc2c1` [Example 16, Ethyl 2-[7-(3',5'-di-tert.-butyl-4'-hydroxy)flavonyl]oxyacetate], the IC50 in the test on Human LDLs [2] was found to be 800 nM. Moreover, the IC50 with Human LDLs [1] came to 3000 nM. Moreover, in test [3] (Sus scrofa), the activity at 0.1 µM stood at 95.4%, the activity at 0.3 µM was found to be 85%, the activity at 1 µM worked out at 74.1% and the activity at 3 µM stood at 37.3%. The activity at 10 µM in test [3] (Sus scrofa) came out at 20.2%. The IC50 in test [3] (Sus scrofa, coronary artery rings contracted by PGF2α, read-out: IC50 of vascular relaxation) was approximately 2600 nM. The “vascular relaxation (in words)” value in test [3] (coronary artery rings contracted by PGF2α) is recorded as “concentration-dependent vascular relaxation”.
For `CC(C)(C)c1cc(-c2cc(=O)c3ccc(OCC(=O)O)cc3o2)cc(C(C)(C)C)c1O` [Example 17, 2-[7-(3',5'-di-tert.-butyl-4'-hydroxy)flavonyl]oxyacetic acid], the 50% inhibitory concentration (IC50) with Human LDLs [2] is 500 nM; in the test with Human LDLs [1], 3000 nM.
In the case of `CC(C)(C)c1cc(-c2cc(=O)c3ccc(OCC(=O)O)cc3o2)cc(C(C)(C)C)c1O` [Example 18], the IC50 in the test on Human LDLs [1] was determined as 5000 nM.
For the compound `CC(C)(C)c1cc(C(=O)Oc2ccc3c(=O)cc(-c4cc(C(C)(C)C)c(O)c(C(C)(C)C)c4)oc3c2)cc(C(C)(C)C)c1O` [Example 20, 3',5'-di-tert-butyl-4'-hydroxy-7-(3",5"-di-tert-butyl-4"-hydroxy)benzoyloxyflavone], the half-maximal inhibitory concentration (IC50) in the test with Human LDLs [2] was determined as 700 nM; in the test with Human LDLs [1] it was 30000 nM.
In the case of `CC(C)(Sc1cc(C(C)(C)C)c(O)c(C(C)(C)C)c1)Sc1cc(C(C)(C)C)c(O)c(C(C)(C)C)c1` [PROBUCOL, reference compound], the half-maximal inhibitory concentration (IC50) with Human LDLs [2] was 4000 nM. For the same compound, in the test on Human LDLs [1], the IC50 was 3000 nM. For the same compound, in test [3] (Sus scrofa), the activity at 0.1 µM was 93.3%, the activity at 0.3 µM came to 85.6%, the activity at 1 µM turned out to be 77.3% and the activity at 3 µM is 66%. Further, the activity at 10 µM in test [3] (Sus scrofa) is 49.2%.
Turning to VITAMIN E [reference compound], the results for the concentration for half-maximal inhibition (IC50) with Human LDLs [2] and in the test with Human LDLs [1] were 4000 nM and more than 100000 nM, respectively.
